Assay: xn = mol fraction of the nth substance listed
Conditions: 101 kPa, Liquid; for viscosity: Capillary tube (Ostwald / Ubbelohde) method; for mass density: Pycnometric method; for speed of sound: Resonance method

C[N+](=O)[O-] [nitromethane] + COCCO
Conditions | mass density [kg/m3] | speed of sound [m/s] | viscosity [mPa·s]
293.15 K, x1 = 0.05 | 970.66 | 1354.7 | –
293.15 K, x1 = 0.0501 | – | – | 1.618
293.15 K, x1 = 0.0998 | 976.62 | 1351.1 | –
293.15 K, x1 = 0.1024 | – | – | 1.527
293.15 K, x1 = 0.2 | 989.24 | 1345 | –
293.15 K, x1 = 0.2162 | – | – | 1.341
293.15 K, x1 = 0.2991 | – | 1340 | –
293.15 K, x1 = 0.3 | 1002.64 | – | –
293.15 K, x1 = 0.3003 | – | – | 1.216
293.15 K, x1 = 0.4 | 1017.06 | 1335.5 | –
293.15 K, x1 = 0.4076 | – | – | 1.072
293.15 K, x1 = 0.451 | – | – | 1.02
293.15 K, x1 = 0.4997 | – | – | 0.964
293.15 K, x1 = 0.4998 | – | 1331.9 | –
293.15 K, x1 = 0.5 | 1032.73 | – | –
293.15 K, x1 = 0.55 | – | – | 0.91
293.15 K, x1 = 0.6 | 1049.94 | 1329.2 | –
293.15 K, x1 = 0.6026 | – | – | 0.859
293.15 K, x1 = 0.6998 | – | – | 0.775
293.15 K, x1 = 0.7 | 1068.86 | 1327.7 | –
293.15 K, x1 = 0.7991 | – | – | 0.71
293.15 K, x1 = 0.8 | – | 1327.5 | –
293.15 K, x1 = 0.8002 | 1089.69 | – | –
293.15 K, x1 = 0.8999 | 1112.46 | 1330.3 | –
293.15 K, x1 = 0.9001 | – | – | 0.663
293.15 K, x1 = 0.941 | – | – | 0.653
293.15 K, x1 = 0.9503 | 1124.81 | 1333.7 | –
293.15 K, x1 = 1 | 1137.63 | 1340.2 | 0.648
298.15 K, x1 = 0.05 | 965.94 | 1338.1 | –
298.15 K, x1 = 0.0506 | – | – | 1.466
298.15 K, x1 = 0.0998 | 971.79 | 1334.8 | –
298.15 K, x1 = 0.1037 | – | – | 1.387
298.15 K, x1 = 0.2 | 984.22 | 1329.2 | –
298.15 K, x1 = 0.2002 | – | – | 1.249
298.15 K, x1 = 0.2991 | – | 1324.1 | –
298.15 K, x1 = 0.3 | 997.42 | – | –
298.15 K, x1 = 0.3006 | – | – | 1.118
298.15 K, x1 = 0.4 | 1011.62 | 1319.6 | –
298.15 K, x1 = 0.4052 | – | – | 0.994
298.15 K, x1 = 0.4509 | – | – | 0.944
298.15 K, x1 = 0.4998 | – | 1315.6 | –
298.15 K, x1 = 0.5 | 1027.07 | – | –
298.15 K, x1 = 0.5016 | – | – | 0.892
298.15 K, x1 = 0.5497 | – | – | 0.846
298.15 K, x1 = 0.5991 | – | – | 0.8
298.15 K, x1 = 0.6 | 1044.03 | 1312.6 | –
298.15 K, x1 = 0.694 | – | – | 0.725
298.15 K, x1 = 0.7 | 1062.69 | 1310.7 | –
298.15 K, x1 = 0.7953 | – | – | 0.666
298.15 K, x1 = 0.8 | – | 1310.6 | –
298.15 K, x1 = 0.8002 | 1083.23 | – | –
298.15 K, x1 = 0.8997 | – | – | 0.629
298.15 K, x1 = 0.8999 | 1105.69 | 1312.9 | –
298.15 K, x1 = 0.9454 | – | – | 0.621
298.15 K, x1 = 0.9503 | 1117.91 | 1315.8 | –
298.15 K, x1 = 1 | 1130.62 | 1320.4 | 0.619
303.15 K, x1 = 0.05 | 961.25 | 1321.7 | –
303.15 K, x1 = 0.0585 | – | – | 1.328
303.15 K, x1 = 0.0998 | 966.98 | 1318.5 | –
303.15 K, x1 = 0.1015 | – | – | 1.271
303.15 K, x1 = 0.1989 | – | – | 1.149
303.15 K, x1 = 0.2 | 979.15 | 1312.9 | –
303.15 K, x1 = 0.2991 | – | 1307.4 | –
303.15 K, x1 = 0.3 | 992.16 | – | –
303.15 K, x1 = 0.3091 | – | – | 1.02
303.15 K, x1 = 0.3978 | – | – | 0.925
303.15 K, x1 = 0.4 | 1006.16 | 1302.5 | –
303.15 K, x1 = 0.449 | – | – | 0.875
303.15 K, x1 = 0.4998 | – | 1298.1 | 0.828
303.15 K, x1 = 0.5 | 1021.4 | – | –
303.15 K, x1 = 0.5549 | – | – | 0.782
303.15 K, x1 = 0.59 | – | – | 0.756
303.15 K, x1 = 0.6 | 1038.1 | 1294.5 | –
303.15 K, x1 = 0.6977 | – | – | 0.684
303.15 K, x1 = 0.7 | 1056.45 | 1292.2 | –
303.15 K, x1 = 0.7979 | – | – | 0.632
303.15 K, x1 = 0.8 | – | 1291.7 | –
303.15 K, x1 = 0.8002 | 1076.63 | – | –
303.15 K, x1 = 0.8999 | 1098.72 | 1293.4 | –
303.15 K, x1 = 0.9037 | – | – | 0.594
303.15 K, x1 = 0.9503 | 1110.81 | 1295.1 | –
303.15 K, x1 = 0.9508 | – | – | 0.585
303.15 K, x1 = 1 | 1123.6 | 1298.1 | 0.584
308.15 K, x1 = 0.05 | 956.53 | 1310.2 | –
308.15 K, x1 = 0.0671 | – | – | 1.175
308.15 K, x1 = 0.0998 | 962.12 | 1307.4 | –
308.15 K, x1 = 0.1029 | – | – | 1.134
308.15 K, x1 = 0.1995 | – | – | 1.025
308.15 K, x1 = 0.2 | 974.11 | 1301.4 | –
308.15 K, x1 = 0.2991 | – | 1295.7 | –
308.15 K, x1 = 0.3 | 986.95 | – | –
308.15 K, x1 = 0.3053 | – | – | 0.917
308.15 K, x1 = 0.4 | 1000.76 | 1290.4 | –
308.15 K, x1 = 0.4012 | – | – | 0.833
308.15 K, x1 = 0.4528 | – | – | 0.792
308.15 K, x1 = 0.4998 | – | 1285.6 | –
308.15 K, x1 = 0.5 | 1015.8 | – | –
308.15 K, x1 = 0.5078 | – | – | 0.75
308.15 K, x1 = 0.5514 | – | – | 0.719
308.15 K, x1 = 0.5981 | – | – | 0.689
308.15 K, x1 = 0.6 | 1032.3 | 1281.5 | –
308.15 K, x1 = 0.6981 | – | – | 0.633
308.15 K, x1 = 0.7 | 1050.38 | 1278.6 | –
308.15 K, x1 = 0.7954 | – | – | 0.594
308.15 K, x1 = 0.8 | – | 1277.7 | –
308.15 K, x1 = 0.8002 | 1070.27 | – | –
308.15 K, x1 = 0.8985 | – | – | 0.572
308.15 K, x1 = 0.8999 | 1092.11 | 1278.6 | –
308.15 K, x1 = 0.9383 | – | – | 0.569
308.15 K, x1 = 0.9503 | 1104.13 | 1279.6 | –
308.15 K, x1 = 1 | 1116.86 | 1281.2 | 0.563
313.15 K, x1 = 0.0498 | – | – | 1.055
313.15 K, x1 = 0.05 | 951.39 | 1293.9 | –
313.15 K, x1 = 0.0998 | 956.87 | 1291.1 | –
313.15 K, x1 = 0.1101 | – | – | 0.999
313.15 K, x1 = 0.2 | 968.71 | 1285.4 | –
313.15 K, x1 = 0.2081 | – | – | 0.911
313.15 K, x1 = 0.2991 | – | 1279.7 | –
313.15 K, x1 = 0.3 | 981.39 | – | –
313.15 K, x1 = 0.3023 | – | – | 0.835
313.15 K, x1 = 0.4 | 995.04 | 1274.2 | –
313.15 K, x1 = 0.4004 | – | – | 0.762
313.15 K, x1 = 0.4571 | – | – | 0.722
313.15 K, x1 = 0.4998 | – | 1269.3 | –
313.15 K, x1 = 0.5 | 1009.9 | – | –
313.15 K, x1 = 0.5015 | – | – | 0.693
313.15 K, x1 = 0.5566 | – | – | 0.659
313.15 K, x1 = 0.599 | – | – | 0.636
313.15 K, x1 = 0.6 | 1026.19 | 1265.1 | –
313.15 K, x1 = 0.6995 | – | – | 0.589
313.15 K, x1 = 0.7 | 1044.07 | 1262.1 | –
313.15 K, x1 = 0.8 | – | 1260.9 | 0.562
313.15 K, x1 = 0.8002 | 1063.69 | – | –
313.15 K, x1 = 0.8851 | – | – | 0.555
313.15 K, x1 = 0.8999 | 1085.24 | 1261.5 | –
313.15 K, x1 = 0.9387 | – | – | 0.553
313.15 K, x1 = 0.9503 | 1097.15 | 1262.2 | –
313.15 K, x1 = 1 | 1109.87 | 1262.8 | 0.545
